Reference: the NIST ThermoML archive (doi:10.1016/j.jct.2016.04.020)

Experiment: mn = molality of the nth substance listed, in mol/kg
Conditions: 101.3 kPa, Liquid, Vibrating tube method

O=C([O-])CC(O)(CC(=O)[O-])C(=O)[O-].[NH4+].[NH4+].[NH4+] [ammonium 2-hydroxypropane-1,2,3-tricarboxylate] + O
mass density [kg/m3]
Conditions	m1 = 0.0125	m1 = 0.025	m1 = 0.04999	m1 = 0.09998	m1 = 0.1499	m1 = 0.2
283.15 K	1001.9	1003.43	1006.27	1011.68	1017.03	1022.12
287.15 K	1001.25	1002.76	1005.56	1010.91	1016.2	1021.24
293.15 K	1000.32	1001.83	1004.59	1009.9	1015.14	1020.13
298.15 K	999.12	1000.6	1003.33	1008.6	1013.82	1018.77
303.15 K	997.71	999.18	1001.88	1007.13	1012.32	1017.26
308.15 K	996.07	997.53	1000.22	1005.44	1010.62	1015.55
313.15 K	994.23	995.69	998.32	1003.56	1008.75	1013.67
318.15 K	992.21	993.66	996.29	1001.54	1006.7	1011.63
323.15 K	990.03	991.47	994.08	999.34	1004.49	1009.46
328.15 K	987.68	989.12	991.7	996.99	1002.14	1007.11
333.15 K	985.17	986.62	989.15	994.46	999.65	1004.59

O=C([O-])CC(O)(CC(=O)[O-])C(=O)[O-].[Li+].[Li+].[Li+] [trilithium citrate] + O
Conditions	mass density [kg/m3]
278.15 K, m1 = 0.0128	1002
278.15 K, m1 = 0.0256	1003.88
278.15 K, m1 = 0.06	1008.52
278.15 K, m1 = 0.1021	1013.86
278.15 K, m1 = 0.1956	1026.51
278.15 K, m1 = 0.293	1038.92
278.15 K, m1 = 0.3876	1050.53
278.15 K, m1 = 0.4799	1061.45
278.15 K, m1 = 0.6695	1083.25
278.15 K, m1 = 0.7552	1092.43
278.15 K, m1 = 0.8394	1101.64
278.15 K, m1 = 0.9407	1112.23
278.15 K, m1 = 1.33	1149.11
278.15 K, m1 = 1.74	1185.46
283.15 K, m1 = 0.0128	1001.66
283.15 K, m1 = 0.0256	1003.48
283.15 K, m1 = 0.06	1008.09
283.15 K, m1 = 0.1021	1013.43
283.15 K, m1 = 0.1956	1025.89
283.15 K, m1 = 0.293	1038.19
283.15 K, m1 = 0.3876	1049.67
283.15 K, m1 = 0.4799	1060.48
283.15 K, m1 = 0.6695	1082.11
283.15 K, m1 = 0.7552	1091.22
283.15 K, m1 = 0.8394	1100.37
283.15 K, m1 = 0.9407	1110.89
283.15 K, m1 = 1.33	1147.56
283.15 K, m1 = 1.74	1183.73
288.15 K, m1 = 0.0128	1001.03
288.15 K, m1 = 0.0256	1002.83
288.15 K, m1 = 0.06	1007.41
288.15 K, m1 = 0.1021	1012.68
288.15 K, m1 = 0.1956	1025.03
288.15 K, m1 = 0.293	1037.23
288.15 K, m1 = 0.3876	1048.63
288.15 K, m1 = 0.4799	1059.37
288.15 K, m1 = 0.6695	1080.85
288.15 K, m1 = 0.7552	1089.92
288.15 K, m1 = 0.8394	1099.01
288.15 K, m1 = 0.9407	1109.48
288.15 K, m1 = 1.33	1145.98
288.15 K, m1 = 1.74	1182.04
293.15 K, m1 = 0.0128	1000.13
293.15 K, m1 = 0.0256	1001.93
293.15 K, m1 = 0.06	1006.4
293.15 K, m1 = 0.1021	1011.71
293.15 K, m1 = 0.1956	1023.97
293.15 K, m1 = 0.293	1036.06
293.15 K, m1 = 0.3876	1047.42
293.15 K, m1 = 0.4799	1058.1
293.15 K, m1 = 0.6695	1079.46
293.15 K, m1 = 0.7552	1088.49
293.15 K, m1 = 0.8394	1097.55
293.15 K, m1 = 0.9407	1107.97
293.15 K, m1 = 1.33	1144.34
293.15 K, m1 = 1.74	1180.29
298.15 K, m1 = 0.0128	998.94
298.15 K, m1 = 0.0256	1000.72
298.15 K, m1 = 0.06	1005.21
298.15 K, m1 = 0.1021	1010.53
298.15 K, m1 = 0.1956	1022.63
298.15 K, m1 = 0.293	1034.68
298.15 K, m1 = 0.3876	1045.95
298.15 K, m1 = 0.4799	1056.57
298.15 K, m1 = 0.6695	1077.86
298.15 K, m1 = 0.7552	1086.85
298.15 K, m1 = 0.8394	1095.87
298.15 K, m1 = 0.9407	1106.24
298.15 K, m1 = 1.33	1142.51
298.15 K, m1 = 1.74	1178.37
303.15 K, m1 = 0.0128	997.54
303.15 K, m1 = 0.0256	999.32
303.15 K, m1 = 0.06	1003.8
303.15 K, m1 = 0.1021	1008.95
303.15 K, m1 = 0.1956	1021.12
303.15 K, m1 = 0.293	1033.1
303.15 K, m1 = 0.3876	1044.36
303.15 K, m1 = 0.4799	1054.93
303.15 K, m1 = 0.6695	1076.13
303.15 K, m1 = 0.7552	1085.11
303.15 K, m1 = 0.8394	1094.1
303.15 K, m1 = 0.9407	1104.46
303.15 K, m1 = 1.33	1140.64
303.15 K, m1 = 1.74	1176.43
308.15 K, m1 = 0.0128	995.93
308.15 K, m1 = 0.0256	997.69
308.15 K, m1 = 0.06	1002.15
308.15 K, m1 = 0.1021	1007.28
308.15 K, m1 = 0.1956	1019.42
308.15 K, m1 = 0.293	1031.35
308.15 K, m1 = 0.3876	1042.52
308.15 K, m1 = 0.4799	1053.1
308.15 K, m1 = 0.6695	1074.26
308.15 K, m1 = 0.7552	1083.2
308.15 K, m1 = 0.8394	1092.17
308.15 K, m1 = 0.9407	1102.51
308.15 K, m1 = 1.33	1138.61
308.15 K, m1 = 1.74	1174.35
313.15 K, m1 = 0.0128	994.08
313.15 K, m1 = 0.0256	995.83
313.15 K, m1 = 0.06	1000.28
313.15 K, m1 = 0.1021	1005.41
313.15 K, m1 = 0.1956	1017.49
313.15 K, m1 = 0.293	1029.43
313.15 K, m1 = 0.3876	1040.59
313.15 K, m1 = 0.4799	1051.12
313.15 K, m1 = 0.6695	1072.2
313.15 K, m1 = 0.7552	1081.14
313.15 K, m1 = 0.8394	1090.09
313.15 K, m1 = 0.9407	1100.41
313.15 K, m1 = 1.33	1136.47
313.15 K, m1 = 1.74	1172.18
318.15 K, m1 = 0.0128	992.05
318.15 K, m1 = 0.0256	993.81
318.15 K, m1 = 0.06	998.26
318.15 K, m1 = 0.1021	1003.38
318.15 K, m1 = 0.1956	1015.42
318.15 K, m1 = 0.293	1027.35
318.15 K, m1 = 0.3876	1038.47
318.15 K, m1 = 0.4799	1048.98
318.15 K, m1 = 0.6695	1070.04
318.15 K, m1 = 0.7552	1078.96
318.15 K, m1 = 0.8394	1087.9
318.15 K, m1 = 0.9407	1098.21
318.15 K, m1 = 1.33	1134.23
318.15 K, m1 = 1.74	1169.9
323.15 K, m1 = 0.0128	989.86
323.15 K, m1 = 0.0256	991.58
323.15 K, m1 = 0.06	996.08
323.15 K, m1 = 0.1021	1001.19
323.15 K, m1 = 0.1956	1013.22
323.15 K, m1 = 0.293	1025.12
323.15 K, m1 = 0.3876	1036.24
323.15 K, m1 = 0.4799	1046.74
323.15 K, m1 = 0.6695	1067.78
323.15 K, m1 = 0.7552	1076.68
323.15 K, m1 = 0.8394	1085.62
323.15 K, m1 = 0.9407	1095.92
323.15 K, m1 = 1.33	1131.93
323.15 K, m1 = 1.74	1167.57
328.15 K, m1 = 0.0128	987.52
328.15 K, m1 = 0.0256	989.24
328.15 K, m1 = 0.06	993.72
328.15 K, m1 = 0.1021	998.82
328.15 K, m1 = 0.1956	1010.84
328.15 K, m1 = 0.293	1022.76
328.15 K, m1 = 0.3876	1033.86
328.15 K, m1 = 0.4799	1044.36
328.15 K, m1 = 0.6695	1065.38
328.15 K, m1 = 0.7552	1074.27
328.15 K, m1 = 0.8394	1083.21
328.15 K, m1 = 0.9407	1093.5
328.15 K, m1 = 1.33	1129.51
328.15 K, m1 = 1.74	1165.14
333.15 K, m1 = 0.0128	985.04
333.15 K, m1 = 0.0256	986.7
333.15 K, m1 = 0.06	991.24
333.15 K, m1 = 0.1021	996.31
333.15 K, m1 = 0.1956	1008.42
333.15 K, m1 = 0.293	1020.27
333.15 K, m1 = 0.3876	1031.35
333.15 K, m1 = 0.4799	1041.87
333.15 K, m1 = 0.6695	1062.87
333.15 K, m1 = 0.7552	1071.77
333.15 K, m1 = 0.8394	1080.69
333.15 K, m1 = 0.9407	1090.99
333.15 K, m1 = 1.33	1127.01
333.15 K, m1 = 1.74	1162.66
338.15 K, m1 = 0.0128	982.43
338.15 K, m1 = 0.0256	984.02
338.15 K, m1 = 0.06	988.59
338.15 K, m1 = 0.1021	993.66
338.15 K, m1 = 0.1956	1005.8
338.15 K, m1 = 0.293	1017.67
338.15 K, m1 = 0.3876	1028.73
338.15 K, m1 = 0.4799	1039.22
338.15 K, m1 = 0.6695	1060.25
338.15 K, m1 = 0.7552	1069.15
338.15 K, m1 = 0.8394	1078.19
338.15 K, m1 = 0.9407	1088.43
338.15 K, m1 = 1.33	1124.43
338.15 K, m1 = 1.74	1160.09
343.15 K, m1 = 0.0128	979.51
343.15 K, m1 = 0.0256	981.2
343.15 K, m1 = 0.06	985.85
343.15 K, m1 = 0.1021	990.99
343.15 K, m1 = 0.1956	1002.94
343.15 K, m1 = 0.293	1014.95
343.15 K, m1 = 0.3876	1026.06
343.15 K, m1 = 0.4799	1036.55
343.15 K, m1 = 0.6695	1057.62
343.15 K, m1 = 0.7552	1066.41
343.15 K, m1 = 0.8394	1075.46
343.15 K, m1 = 0.9407	1085.78
343.15 K, m1 = 1.33	1121.83
343.15 K, m1 = 1.74	1157.54
